In US8592368B2, “JAK/STAT inhibitors and MAPK/ERK inhibitors for RSV infection” (University of South Florida, priority 2003, dated 2013):

Experiments:
[1] = test system: A549 cells; assay type: cell-based, human
Method: (§1) FIGS. 4A-4F that blocking STAT-1α attenuates RSV gene transcription and infection. A549 cells were treated with 50 µM AG490 for 4 hours before being exposed to supRSV for 30 minutes. Lysates were separated by SDS-PAGE and immunoblotted using antibodies to phospho-STAT-1α and STAT-1α. The total number of syncytia-forming plaques (PFU/ml) was counted 72 hours post-infection. Each value represents means SEM (N=3, *p<0.001). Cell proliferation was determined by viable cell counts. A549 cells were cotransfected with the pRL-TK plasmid and either the WT (pRc/CMV STAT-1α) (lanes 1 and 2) or DN mutant (pRc/CMV STAT-1α) (Y701F) (lanes 3 and 4) and then exposed to supRSV for 30 minutes. Lysates were separated by SDS-PAGE and immunoblotted for phospho-STAT-1α or STAT-1α. A549 cells were transfected with WT or DN-STAT-1α constructs and 24 hours later exposed to RSV for 30 minutes. RSV replication was measured by RT-PCR analysis of N protein gene expression. The percentage of infected cells was determined using immunofluorescence in cells transfected with WT or DN-STAT-1α. The values are means SEM (*p<0.001).
To rule out the possibility that this effect on viral replication is due to diminished cell proliferation, viable cells were enumerated at 12, 24, 48, and 72 hours after treatment with inhibitors.

[2] = test system: IκBα; experiment: IκBα phosphorylation in RSV-infected A549 cells (immunoblot); assay type: cell-based, human; details: A549 cells pre-incubated with AG490 (50 μM) or PD98059 for 4 hours, then RSV
Method: FIGS. 8A-8D show the effects of inhibitors of phosphorylation of STAT-1α and ERK-1/2. In FIG. 8A, AG490- or PD98059-treated A549 cells were infected with RSV for 15 minutes. Total proteins were Western-blotted using specific anti-phospho antibodies to STAT-1α, ERK-1/2 or IκBα. Lane 1: mock-infected, lanes 2-4: RSV infected for 30 minutes, lane 3: cells treated with 50 μM of AG490 prior to RSV infection, lane 4: cells treated with 25 μM of PD98059 for 4 hours prior RSV infection. In FIG. 8B, the bands were quantified by densitometry and the relative intensity of phosphoSTAT-1α, phospho-ERK and phospho-IκBα with respect to uninfected control (lane 1) was determined. The experiment was repeated twice and the result of a representative experiment is shown. […] In FIG. 8D, the bands were quantified by densitometry and the relative intensity of phospho-ERK and ERK was determined in each band. […]
(§2) Whole cell protein extracts were prepared by lysing cells in 50 mM HEPES, 150 mM NaCl, 1 mM EDTA, 1 mM EGTA, 10% glycerol, 0.5% NP-40, 0.1 mM phenylmethylsulfonyl fluoride, 2.5 μg/ml leupeptin, 0.5 mM NaF, and 0.1 mM sodium vanadate. […] The antibody reactions were detected by enhanced chemiluminescence using LUMIGLO (CELL SIGNALLING TECHNOLOGY).

[3] = test system: rgRSV; experiment: rgRSV infection of primary NHBE cells (fluorescent images); assay type: cell-based, respiratory syncytial virus; details: AG490 50 μM or PD98059 80 μM 2 hours before rgRSV, images after 16 hours
Method: FIGS. 10A-10F show the effects of STAT and ERK-1/2 inhibitors on RSV infection of NHBE cells. NHBE cells were treated with either AG490 (50 μM) (FIGS. 10C and 10D) or PD98059 (80 μM) (FIGS. 10E and 10F) for 2 hours. DMSO was used as a mock control (FIGS. 10A and 10B). After inhibitor removal, cells were infected with rgRSV for 2 hours. Then, rgRSV was removed and growth medium with inhibitors was added to the cells for 16 hours before fluorescent images (DMSO, FIG. 10B; AG490, FIG. 10D; PD98059, FIG. 10F) as well as light transmission images (DMSO, FIG. 10A; AG490, FIG. 10C; PD98059, FIG. 10E) were taken.
RSV A2 strain was obtained from the American Type Culture Collection (ATCC, Rockville, Md., USA). In some experiments, rgRSV (an engineered RSV expressing enhanced green fluorescent protein) was used. A549 cell line, representing type II alveolar epithelial cells, was obtained from the ATCC. The cells were grown at 37° C. in 5% CO2 in RPMI medium, supplemented with 10% fetal bovine serum. Normal human bronchial epithelial cells (NHBE) were obtained from CAMBREX (Walkersville, Md., USA) and grown in serum-free bronchial epithelium growth medium supplemented as indicated by the manufacturer. NHBE at passage 2 and 3 was used for the experiments.
A549 cells were incubated with AG490 (50 μM) or PD98059 (80 μM) for 4 hours at 37° C. and then infected with RSV. […]

[4] = test system: RSV; experiment: RSV plaque assay (syncytia-forming plaques, HEp-2 cell-based); design: species or system respiratory syncytial virus; details: A549 cells, AG490 pretreatment, plaques counted 72 hours post-infection
Method: as §1, with “(*p<0.001). […]” for “(*p<0.001).”

[5] = test system: ERK-1/2; experiment: ERK-1/2 phosphorylation in RSV-infected A549 cells (immunoblot); assay type: cell-based, human
Method: Proteins were isolated from untreated cells (lane 1) or cells infected with RSV for 30 minutes (lanes 2-6) after pretreatment of cells for 30 minutes with heparinase (lane 3) or heparin (lane 5), or infected with virus pretreated with heparinase (lane 4) or heparin (lane 6) prior to addition to the cells. Proteins were separated by SDS-PAGE, blotted and probed with anti-phospho ERK-1/2 and then re-probed with anti-ERK-1/2.
(§3) FIGS. 8A-8D show the effects of inhibitors of phosphorylation of STAT-1α and ERK-1/2. In FIG. 8A, AG490- or PD98059-treated A549 cells were infected with RSV for 15 minutes. Total proteins were Western-blotted using specific anti-phospho antibodies to STAT-1α, ERK-1/2 or IκBα. Lane 1: mock-infected, lanes 2-4: RSV infected for 30 minutes, lane 3: cells treated with 50 μM of AG490 prior to RSV infection, lane 4: cells treated with 25 μM of PD98059 for 4 hours prior RSV infection. In FIG. 8B, the bands were quantified by densitometry and the relative intensity of phosphoSTAT-1α, phospho-ERK and phospho-IκBα with respect to uninfected control (lane 1) was determined. The experiment was repeated twice and the result of a representative experiment is shown. […] A549 cells were co-transfected with RL-TK plasmid and either the WT (pRc/CMV-STAT-1α) (lanes 3 and 4) or DN mutant (pRc/CMV-STAT-1α) (Y701F) (lanes 5 and 6) and were infected with RSV for 30 minutes after 24 hours of transfection. Total proteins were extracted and Western-blotted using antibodies to phospho-STAT-1α, phospho-ERK-1/2 and re-probed with antibodies to STAT-1α or ERK-1/2. In FIG. 8D, the bands were quantified by densitometry and the relative intensity of phospho-ERK and ERK was determined in each band. […]
as §2, with “TECHNOLOGY). […]” for “TECHNOLOGY).”

[6] = test system: STAT-1α; experiment: STAT-1α phosphorylation in RSV-infected A549 cells (immunoblot); assay type: cell-based, human; details: for RSV-induced STAT-1α phosphorylation: A549 cells pre-incubated with AG490 (50 μM) or PD98059 for 4 hours, then RSV, densitometry of Western blot
Method: as §1
as §3, with “Total proteins were extracted and Western-blotted using antibodies to phospho-STAT-1α, phospho-ERK-1/2 and re-probed with antibodies to STAT-1α or ERK-1/2.” left out
Immunoblotting was carried out as previously described (Behera, A. K. et al. Biochem. Biophys. Res. Commun., 1998, 251(3): 704-709). After transfer, membranes were blocked with 5% non-fat dried milk, incubated with antibody to a specific STAT protein or to the corresponding phospho-STAT protein (NEW ENGLAND BIOLABS, Beverly, Mass.), secondary antibody conjugated to horseradish peroxidase was added, and immunocomplexes detected by enhanced chemiluminescence (NEW ENGLAND BIOLABS, Beverly, Mass.). […]

[7] = test system: RSV; details: treatment of cells; Feldman et al. 1999; cited from earlier work
[8] = test system: HIV-1; details: Yang and Gabuzda 1999; cited from earlier work
[9] = test system: RSV; experiment: Immunofluorescence count of RSV-infected A549 cells; assay type: cell-based, respiratory syncytial virus; details: A549 cells treated with PD98059, 24 hours of RSV infection, vs control
Method: as §1, with “The values are means SEM (*p<0.001).” left out
In FIG. 9A, PD98059- or DMSO-treated A549 cells were infected with RSV. […] The RSV titers were determined using a HEP-2 cell-based plaque assay as described. […] Twenty-four hours after transfection, A549 cells were infected with RSV for 90 minutes and 24 hours after the % of infected cells was determined with FITC-RSV antibody. […]

Molecule | cytotoxic or anti-proliferative effects (viable cell counts) [1] | IκBα phosphorylation [2] | number of infected cells [3] | RSV infection by plaque assay (PFU/ml) [4] | ERK activation (phospho-ERK-1/2) ([5]; A549 cells pre-incubated with AG490 50 μM, then RSV) | RSV-induced STAT-1α phosphorylation [6] | phosphorylation of STAT-1α ([6]; A549 cells preincubated with AG490 for 4 hours, then supRSV 30 minutes, vs untreated controls) | RSV infection [7] | RSV-induced activation of ERK-1/2 ([5]; A549 cells, heparin pretreatment, RSV 30 minutes) | ERK-1/2 phosphorylation induced by pretreated RSV ([5]; RSV pretreated with heparin or heparinase before addition to A549 cells) | RSV-induced activation of STAT-1 ([6]; A549 cells or RSV pretreated with heparin 1000 U/ml or heparinase 10 U/ml, RSV 30 minutes) | infectivity of HIV-1 virions [8] | percentage of infected cells [9]
N#C/C(=C/c1ccc(O)c(O)c1)C(=O)NCc1ccccc1 [AG490] | no cytotoxic or anti-proliferative effects | decrease | significant reduction in the number of infected cells | significantly (p<0.001) decreased RSV infection | failed to inhibit ERK activation | decrease in RSV-induced STAT-1K phosphorylation | decreased phosphorylation of STAT-1α | – | – | – | – | – | –
heparin | – | – | – | – | – | – | – | blocks RSV infection | abolished the RSV-induced activation of ERK-1/2 | did not induce ERK-1/2 phosphorylation | abolished | – | –
COc1cccc(-c2cc(=O)c3ccccc3o2)c1N [PD98059] | – | significantly affected the phosphorylation | significant reduction in the number of infected cells | – | – | significantly affected the phosphorylation | – | – | – | – | – | reduced the infectivity of HIV-1 virions | decrease in the percentage of infected cells
